Patent US10988481B2, “Potent and selective mu opioid receptor modulators” (VIRGINIA COMMONWEALTH UNIVERSITY, priority 2016, dated 2021)
Read-outs that look alike come from different tables or passages of the source.

Columns and labels:
KOR = KOR (Homo sapiens (Human), UniProt P41145); assay: Competition binding assay at KOR ([3H]DPN, CHO cell membranes)
Method: (§1) Chinese hamster ovary (CHO) cells expressing MOR, KOR and DOR were cultured for use in this assay. The culture media used for MOR CHO cells contained 500 mL DMEM/F12 media, 10% FBS, 1% penicillin/streptomycin, and 2.75 mL G418. The DOR and KOR CHO cells were cultured in the same media except that 5% FBS was used instead of 10%. The cells are allowed to grow until they are 80-95% confluent after which they are split. The cells are continuously cultured and split until there were sufficient cells for the studies.
(§2) Once the cells reached confluence, cells were harvested, centrifuged at 1000×g for 10 minutes, and suspended in membrane buffer (50 mM Tris, 3 mM MgCl2, and 1 mM EGTA, pH 7.4). The cells were then homogenized, centrifuged at 50000×g for 10 minutes, and re-homogenized in membrane buffer. A Bradford assay was conducted to determine membrane protein concentrations, and membrane protein preps (3 μg/aliquot) were stored at −80° C.
(§3) The competition binding assay was conducted to determine the affinity and selectivity of the synthesized compounds to MOR over KOR and DOR. The Kd and Bmax values for [^3H]NLX at MOR and [^3H]DPN at KOR had been determined previously. […] [^3H]NLX was used to label MOR whilst [^3H]DPN was used to label both DOR and KOR. The potency of the new compounds in displacing the specific binding of the radioligand was determined by linear regression analysis of Hill plots. […] The IC50 values were determined and converted to Ki values using the Cheng—Prusoff equation (Rosenblum, A. et al. Exp Clin Psychopharmacol. 2008, 16 (5), 405-416).

MOR = MOR (Mus musculus, UniProt P42866); assay type: biochemical; conditions: relative to 3 μM DAMGO at MOR
Chain of MOR (P42866 whole entry, looked up): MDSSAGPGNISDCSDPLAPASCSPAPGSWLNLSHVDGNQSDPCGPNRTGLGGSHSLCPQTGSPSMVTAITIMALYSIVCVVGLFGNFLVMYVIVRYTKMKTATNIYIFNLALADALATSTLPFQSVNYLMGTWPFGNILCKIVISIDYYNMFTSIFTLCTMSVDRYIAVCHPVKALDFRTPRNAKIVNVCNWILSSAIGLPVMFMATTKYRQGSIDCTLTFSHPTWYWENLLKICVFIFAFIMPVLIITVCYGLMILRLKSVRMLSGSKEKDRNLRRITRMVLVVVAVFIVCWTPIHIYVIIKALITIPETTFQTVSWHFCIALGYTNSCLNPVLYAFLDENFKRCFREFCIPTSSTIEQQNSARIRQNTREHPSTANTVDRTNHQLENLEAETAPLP
Method: The [^35S]GTPγS functional assay was used to determine whether the synthesized compounds are agonists. The agonist's activity of the compounds was measured relative to 3 μM DAMGO at MOR. In this assay, upon receptor activation due to agonist binding, [^35S]GTPγS binds to the Gα subunit. Thus, [^35S]GTPγS replaces endogenous GTP and since the γ-thiophosphate bond is resistant to hydrolysis by GTPase, [^35S]GTPγS labelled Gα subunits accumulate and can be quantified by measuring the amount of incorporated [^35S].
The Bradford assay was then conducted to determine the concentration of the membrane protein using BSA as the standard. Suitable dilutions of membrane protein, [^35S]GTPγS), cold GTPγS, DAMGO and GDP were made in TME. The desired amount of the protein per tube was 10 μg. All the test-tubes were vortexed and incubated in the shaking water bath at 30° C. for 90 minutes, after which bound radioligand was filtered and rinsed three times with cold Tris buffer. The filtered bound radioligand was then transferred into scintillation tubes with 4 mL of scintillation fluid and radioligand was quantified. However, counting was delayed for 9 hrs to allow the radioactivity to enter the solution. Percent DAMGO stimulation was defined as (net stimulated binding of test compound/net stimulated binding of DAMGO)×100%. The normalized data were subjected to nonlinear regression analysis to determine EC50 and Emax values using Prism 6.0 software (GraphPad Software, San Diego, Calif.). The assay was performed in triplicate and repeated at least three times.

DOR = DOR (Homo sapiens (Human), UniProt P41143); assay: Competition binding assay at DOR ([3H]DPN, CHO cell membranes)
Chain of DOR (P41143 whole entry, looked up): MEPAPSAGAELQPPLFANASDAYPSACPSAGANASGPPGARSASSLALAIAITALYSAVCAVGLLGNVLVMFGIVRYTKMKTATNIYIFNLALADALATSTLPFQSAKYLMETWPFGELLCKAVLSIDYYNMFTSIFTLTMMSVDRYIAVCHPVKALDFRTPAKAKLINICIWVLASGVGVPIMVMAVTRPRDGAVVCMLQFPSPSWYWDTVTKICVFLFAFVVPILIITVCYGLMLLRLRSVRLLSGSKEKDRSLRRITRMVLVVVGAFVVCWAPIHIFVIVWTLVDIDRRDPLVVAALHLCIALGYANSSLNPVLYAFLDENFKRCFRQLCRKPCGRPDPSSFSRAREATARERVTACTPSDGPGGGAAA
Method: as §1, §2, §3

Swiss Webster mice = assay: Warm-water tail immersion assay, blockage of the antinociceptive effect of morphine; conditions: for Blockage of morphine-mediated antinociception: 10 mg/kg s.c. 5 min before morphine 10 mg/kg, tested 20 min after morphine; for AD50 (95% CL), opioid antagonist effect: dose-dependent study against morphine, s.c.
Method: FIG. 1A-D. Warm-water tail immersion assay in mice (n=5) at 56±0.1° C. All tested compounds were administered subcutaneously (s.c.). […] Compounds (10 mg/kg) were injected at Time 0. Twenty minutes after injection, tail flick was assessed with hot water. […] Tested compounds (10 mg/kg) were injected at Time 0. Five minutes later, morphine (10 mg/kg) was administered. Twenty minutes after morphine injection, tail flick was tested using hot water.
(§4) For the in vivo studies, male Swiss Webster mice were used for both the warm-water immersion and opioid withdrawal assays. The mice weighed 23-35 g and were housed five to a cage in animal care quarters maintained at 22° C. on a 12 hour light-dark cycle with food and water available ad libitum. The mice were transferred to the test room and the tests were then conducted 18 hours later. Protocols and procedures were approved by the Institutional Animal Care and Use Committee at Virginia Commonwealth University Medical Center and complied with the recommendations of the International Association for the Study of Pain.
Each indole analogue of naltrexamine was tested for its ability to produce antinociception and/or to antagonize the antinociceptive effects of morphine in mice using the warm-water tail immersion assay described by Coderre and Rollman. The a water bath temperature was maintained at 56±0.1° C. The baseline latency (control) was determined before injecting the compounds into the mice. […] To test for agonism, the tail immersion was conducted 20 min (time that morphine effect starts to peak) after injecting the indole analogues of 6α/β-naltrexamine. To prevent tissue damage, a 10 s maximum cut off time was imposed. Antinociceptive response was calculated as the percentage maximum possible effect (% MPE), where % MPE=[(test−control)/(10−control)]×100. In the antagonism study, the 6α/β-naltrexamine derivatives were given 5 min before morphine. The tail immersion test was conducted 20 min after giving morphine. % MPE was calculated for each mouse using at least five mice per drug. AD50 values were calculated using the least-squares linear regression analysis followed by calculation of 95% confidence interval by Bliss method. A higher % MPE indicates a stronger antinociception effect by the ligand.

morphine-pelleted mice = assay: Opioid withdrawal assay in chronic morphine-exposed (pelleted) mice
Method: as §4
A 75 mg morphine pellet was implanted in to the base of the neck of the mice and the mice were then given time to recover in their home cages before the test was conducted. The mice were then allowed for 30 min habituation to an open-topped, square, clear Plexiglas observation chamber (26×26×26 cm^3) with lines partitioning the bottom into quadrants before they were given antagonist. All drugs and test compounds were administered subcutaneously (s.c.). […] Withdrawal commenced within 3 min after antagonist administration. Escape jumps, paw tremors and wet dog shakes were quantified by counting their occurrences over 20 min for each mouse using five mice per drug. The data is given as the mean±SEM. One-way ANOVA followed by the post hoc Dunnett test were performed to assess significance using the Prism 6.0 software.

[1] = [3H]DPN, KOR CHO membranes, read-out: Ki (nM) ± SEM κ
[2] = [3H]DPN, DOR CHO membranes, read-out: Ki (nM) ± SEM δ
[3] = 1 mg/kg s.c., morphine-pelleted mice, counted over 20 min, mean±SEM

SMILES	Ki (KOR; [1])	Emax(% DAMGO) ± SEM (MOR)	Ki (DOR; [2])	also measured
Cl.O=C(N[C@H]1CC[C@@]2(O)[C@H]3Cc4ccc(O)c5c4[C@@]2(CCN3CC2CC2)[C@H]1O5)c1cc2ccccc2[nH]1 [Compound 1, 17-Cyclopropylmethyl-3,14β-dihydroxy-4,5α-epoxy-6α-(indole-2-carboxamido)morphinan]	0.926 ± 0.125 nM	52.0 ± 13.5 % DAMGO	14.2 ± 2.78 nM	–
Cl.O=C(N[C@H]1CC[C@@]2(O)[C@H]3Cc4ccc(O)c5c4[C@@]2(CCN3CC2CC2)[C@H]1O5)c1c[nH]c2ccccc12 [Compound 2, 17-Cyclopropylmethyl-3,14β-dihydroxy-4,5α-epoxy-6α-(indole-3-carboxamido)morphinan]	0.984 ± 0.125 nM	35.4 ± 4.8 % DAMGO	10.5 ± 2.89 nM	–
Cl.O=C(N[C@H]1CC[C@@]2(O)[C@H]3Cc4ccc(O)c5c4[C@@]2(CCN3CC2CC2)[C@H]1O5)c1cccc2[nH]ccc12 [Compound 3, 17-Cyclopropylmethyl-3,14β-dihydroxy-4,5α-epoxy-6α-(indole-4-carboxamido)morphinan]	1.49 ± 0.349 nM	28.9 ± 1 % DAMGO	9.26 ± 2.83 nM	–
Cl.O=C(N[C@H]1CC[C@@]2(O)[C@H]3Cc4ccc(O)c5c4[C@@]2(CCN3CC2CC2)[C@H]1O5)c1ccc2[nH]ccc2c1 [Compound 4, 17-Cyclopropylmethyl-3,14β-dihydroxy-4,5α-epoxy-6α-(indole-5-carboxamido)morphinan]	3.45 ± 0.994 nM	32.2 ± 1.3 % DAMGO	26.7 ± 7.72 nM	–
Cl.O=C(N[C@H]1CC[C@@]2(O)[C@H]3Cc4ccc(O)c5c4[C@@]2(CCN3CC2CC2)[C@H]1O5)c1ccc2cc[nH]c2c1 [Compound 5, 17-Cyclopropylmethyl-3,14β-dihydroxy-4,5α-epoxy-6α-(indole-6-carboxamido)morphinan]	1.63 ± 0.277 nM	27.0 ± 0.31 % DAMGO	12.8 ± 3.36 nM	–
Cl.O=C(Cc1c[nH]c2ccccc12)N[C@H]1CC[C@@]2(O)[C@H]3Cc4ccc(O)c5c4[C@@]2(CCN3CC2CC2)[C@H]1O5 [Compound 7, 17-Cyclopropylmethyl-3,14β-dihydroxy-4,5α-epoxy-6α-[2-(indol-3-yl)acetamido)morphinan]	3.13 ± 0.449 nM	33.88 ± 1.43 % DAMGO	9.17 ± 2.67 nM	–
Cl.O=C(CCc1c[nH]c2ccccc12)N[C@H]1CC[C@@]2(O)[C@H]3Cc4ccc(O)c5c4[C@@]2(CCN3CC2CC2)[C@H]1O5 [Compound 8, 17-Cyclopropylmethyl-3,14β-dihydroxy-4,5α-epoxy-6α-[3-(indol-3-yl)propanamido)morphinan]	1.36 ± 0.178 nM	41.10 ± 6.54 % DAMGO	31.2 ± 8.12 nM	–
Cl.O=C(CCCc1c[nH]c2ccccc12)N[C@H]1CC[C@@]2(O)[C@H]3Cc4ccc(O)c5c4[C@@]2(CCN3CC2CC2)[C@H]1O5 [Compound 9, 17-Cyclopropylmethyl-3,14β-dihydroxy-4,5α-epoxy-6α-[4-(indol-3-yl)butanamido)morphinan]	0.149 ± 0.033 nM	48.36 ± 5.17 % DAMGO	6.73 ± 0.396 nM	–
O=C(N[C@@H]1CC[C@@]2(O)[C@H]3Cc4ccc(O)c5c4[C@@]2(CCN3CC2CC2)[C@H]1O5)c1c[nH]c2ccccc12 [Compound 11, 17-Cyclopropylmethyl-3,14β-dihydroxy-4,5α-epoxy-6β-(indole-3-carboxamido)morphinan]	–	–	–	Ki (KOR): 0.16 ± 0.005 nM; Ki (DOR): 7.17 ± 1.23 nM
Cl.O=C(N[C@@H]1CC[C@@]2(O)[C@H]3Cc4ccc(O)c5c4[C@@]2(CCN3CC2CC2)[C@H]1O5)c1cccc2[nH]ccc12 [Compound 12, 17-Cyclopropylmethyl-3,14β-dihydroxy-4,5α-epoxy-6β-(indole-4-carboxamido)morphinan]	–	15.21 ± 3.13 % DAMGO	–	Ki (KOR): 1.94 ± 0.299 nM; Ki (DOR): 45.9 ± 16.3 nM
Cl.O=C(N[C@@H]1CC[C@@]2(O)[C@H]3Cc4ccc(O)c5c4[C@@]2(CCN3CC2CC2)[C@H]1O5)c1ccc2[nH]ccc2c1 [Compound 13, 17-Cyclopropylmethyl-3,14β-dihydroxy-4,5α-epoxy-6β-(indole-5-carboxamido)morphinan]	–	20.15 ± 4.37 % DAMGO	–	Ki (KOR): 0.512 ± 0.038 nM; Ki (DOR): 17.7 ± 4.78 nM
O=C(N[C@@H]1CC[C@@]2(O)[C@H]3Cc4ccc(O)c5c4[C@@]2(CCN3CC2CC2)[C@H]1O5)c1ccc2cc[nH]c2c1 [Compound 14, 17-Cyclopropylmethyl-3,14β-dihydroxy-4,5α-epoxy-6β-(indole-6-carboxamido)morphinan]	–	–	–	Ki (KOR): 0.166 ± 0.012 nM; Ki (DOR): 6.23 ± 0.825 nM
Cl.O=C(CCc1c[nH]c2ccccc12)N[C@@H]1CC[C@@]2(O)[C@H]3Cc4ccc(O)c5c4[C@@]2(CCN3CC2CC2)[C@H]1O5 [Compound 17, 17-Cyclopropylmethyl-3,14β-dihydroxy-4,5α-epoxy-60-[3-(indol-3-yl)propanamido)morphinan]	0.387 ± 0.045 nM	40.43 ± 5.28 % DAMGO	49 ± 4.72 nM	Blockage of morphine-mediated antinociception (Swiss Webster mice): effectively blocked morphine-mediated antinociception; AD50 (95% CL), opioid antagonist effect (Swiss Webster mice): 7.30 (3.38-15.74) mg/kg
Cl.O=C(CCCc1c[nH]c2ccccc12)N[C@@H]1CC[C@@]2(O)[C@H]3Cc4ccc(O)c5c4[C@@]2(CCN3CC2CC2)[C@H]1O5 [Compound 18, 17-Cyclopropylmethyl-3,14β-dihydroxy-4,5α-epoxy-6β-[4-(indol-3-yl)butanamido)morphinan]	0.175 ± 0.037 nM	36.29 ± 4.11 % DAMGO	25.3 ± 4.34 nM	Blockage of morphine-mediated antinociception (Swiss Webster mice): effectively blocked morphine-mediated antinociception; AD50 (95% CL), opioid antagonist effect (Swiss Webster mice): 9.64 (3.17-29.29) mg/kg
O=C1CC[C@@]2(O)[C@H]3Cc4ccc(O)c5c4[C@@]2(CCN3CC2CC2)[C@H]1O5 [NTX, naltrexone, reference compound]	–	–	–	Escape jumps (morphine-pelleted mice; [3]): 39.0±14.2 times; Paw tremors (morphine-pelleted mice; [3]): 43.4±15.7; Wet-dog shakes (morphine-pelleted mice; [3]): 18.6±1.2 times; Diarrhea (morphine-pelleted mice; 1 mg/kg, morphine pelleted mice (not in placebo pelleted mice)): produced diarrhea
